Molecules are shown by their SMILES. Numbered stars: 1 amine (or outer) side, 2 acyl side, 3 side chain; on linkers, the order of the positions; unused ones are H or OH. Bridge positions count the residues as written; N and C are the ends. Square brackets hold non-standard residues; d marks the D form. Peptide text beside a SMILES is read from it. * marks the point of attachment. X42 = NCCNCC(CNCCN)C(=O)N[C@@H](CCC(=O)NCCCOCCOCCOCCCN*)C(=O)O; mXylylene = c1cc(C[*:1])cc(C[*:2])c1; Suc = O=C(CCC(=O)[*:2])[*:1]; Nle = CCCC[C@H](N)C(=O)O

For assay [1], the target named is T1, FAP-expressing human WI-38 fibroblasts (Homo sapiens, UniProt Q12884).
T1 construct: FAP-expressing human WI-38 fibroblasts (ECACC) were cultured in EMEM; host or cells: WI-38 human fibroblasts
T1 sequence (Q12884 1-760): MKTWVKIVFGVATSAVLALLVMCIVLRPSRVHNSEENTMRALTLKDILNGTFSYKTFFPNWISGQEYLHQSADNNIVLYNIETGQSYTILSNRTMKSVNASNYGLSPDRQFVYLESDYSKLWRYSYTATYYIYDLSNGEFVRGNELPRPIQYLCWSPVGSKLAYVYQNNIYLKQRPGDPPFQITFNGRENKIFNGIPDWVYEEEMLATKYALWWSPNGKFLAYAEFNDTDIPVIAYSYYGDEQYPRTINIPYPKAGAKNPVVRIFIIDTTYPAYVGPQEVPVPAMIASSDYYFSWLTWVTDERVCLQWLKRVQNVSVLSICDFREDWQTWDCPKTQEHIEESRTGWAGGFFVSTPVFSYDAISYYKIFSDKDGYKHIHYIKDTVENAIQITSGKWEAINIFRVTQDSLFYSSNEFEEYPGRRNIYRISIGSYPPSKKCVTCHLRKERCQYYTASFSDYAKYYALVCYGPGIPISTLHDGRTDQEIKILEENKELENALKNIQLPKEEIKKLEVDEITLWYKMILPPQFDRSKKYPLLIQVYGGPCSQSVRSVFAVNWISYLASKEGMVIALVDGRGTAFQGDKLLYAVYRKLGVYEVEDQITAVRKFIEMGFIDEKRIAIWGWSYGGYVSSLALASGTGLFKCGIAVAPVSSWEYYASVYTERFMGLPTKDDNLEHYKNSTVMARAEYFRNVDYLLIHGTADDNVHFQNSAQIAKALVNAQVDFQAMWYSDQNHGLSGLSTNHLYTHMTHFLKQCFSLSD
In words: Competitive FACS binding assay. The following applies: pIC50 Category (FACS), competition with 3 nM Cy5-labeled compound, 4° C., 1 hour. The protocol:
Cells were analyzed in an Attune NxT flow cytometer. […]

The target in another assay is T2, Human recombinant FAP (Homo sapiens, UniProt Q12884).
T2 sequence (Q12884 1-760): T1 sequence (Q12884 1-760)
The experiment in a line: FRET-based FAP protease activity assay. Format: biochemical. Also on record: purchased R&D systems 3715-SE. As to conditions: pIC50 Category (Activity), FRET substrate, 37° C.

For `CCCC[C@H](NC(=O)CC[C@H](NC(=O)C(CNCCN)CNCCN)C(=O)O)C(=O)N[C@H]1CSCc2cccc(c2)CSC[C@@H](C(=O)O)NC(=O)[C@H](Cc2ccccc2)NC(=O)[C@H](CCC(N)=O)NC(=O)[C@H]([C@@H](C)O)NC(=O)[C@@H]2CCCN2C(=O)[C@@H]2CCCN2C1=O` [3BP-4244, N4Ac-gGlu-Nle-[Cys-(3MeBn)-Pro-Pro-Thr-Gln-Phe-Cys]-OH], the half-inhibitory concentration (IC50) (in assay [1]; on Human recombinant FAP) was above 1 µM in each case.

Turning to `CCCC[C@H](NC(=O)CCC(=O)NCCCOCCOCCOCCCNC(=O)CC[C@H](NC(=O)C(CNCCN)CNCCN)C(=O)O)C(=O)N[C@H]1CSCc2cccc(c2)CSC[C@@H](C(=O)O)NC(=O)[C@H](Cc2ccccc2)NC(=O)[C@H](CCC(=O)O)NC(=O)[C@H]([C@@H](C)O)NC(=O)[C@@H]2CCCN2C(=O)[C@@H]2CCCN2C1=O` [3BP-4245, N4Ac-gGlu-Ttds-Nle-[Cys-(3MeBn)-Pro-Pro-Thr-Gln-Phe-Cys]-OH] ({X42-Suc}-[Nle]CPPTEFC-OH; linker 2-8 via mXylylene), the IC50 (in assay [1]; on Human recombinant FAP) was 0.01 to 0.0794 µM throughout.

For `CCCC[C@H](NC(=O)CCC(=O)NCCCOCCOCCOCCCNC(=O)[C@H](CCC(=O)NC[C@H](O)[C@@H](O)[C@H](O)[C@H](O)CO)NC(=O)[C@H](CCC(=O)NC[C@H](O)[C@@H](O)[C@H](O)[C@H](O)CO)NC(=O)C(CNCCN)CNCCN)C(=O)N[C@H]1CSCc2cccc(c2)CSC[C@@H](C(=O)O)NC(=O)[C@H](Cc2ccccc2)NC(=O)[C@H](CCC(=O)O)NC(=O)[C@H]([C@@H](C)O)NC(=O)[C@@H]2CCCN2C(=O)[C@@H]2CCCN2C1=O` [3BP-4266, N4Ac-Glu(AGLU)-Glu(AGLU)-Ttds-Nle-[Cys-(3MeBn)-Pro-Pro-Thr-Glu-Phe-Cys]-OH], the half-inhibitory concentration (IC50) (in assay [1]; on Human recombinant FAP) was 0.01 to 0.0794 µM in each case.

Turning to `CCCCCC(=O)N[C@H]1CSCc2cc(CSCCNC(=O)CN3CCN4CCN(CC(=O)O)CCN(CC3)CC(=O)[O][Cu][O]C(=O)C4)cc(c2)CSC[C@@H](C(=O)O)NC(=O)[C@H](Cc2ccccc2)NC(=O)[C@H](CCC(N)=O)NC(=O)[C@H]([C@@H](C)O)NC(=O)[C@@H]2CCCN2C(=O)[C@@H]2CCCN2C1` [3BP-4293, Copper(II)-Complex of Hex-[Cys(tMeBn(DOTA-AET))-Pro-Pro-Thr-Gln-Phe-Cys]-OH], the 50% inhibitory concentration (IC50) (in assay [1]; at Human recombinant FAP) was below 0.01 µM in each case.

Take `CCCCCC(=O)N[C@H]1CSCc2cc(CSCCNC(=O)CCC(=O)NCCCOCCOCCOCCCNC(=O)C(CNCCN)CNCCN)cc(c2)CSC[C@@H](C(=O)O)NC(=O)[C@H](Cc2ccccc2)NC(=O)[C@H](CCC(N)=O)NC(=O)[C@H]([C@@H](C)O)NC(=O)[C@@H]2CCCN2C(=O)[C@@H]2CCCN2C1=O` [3BP-4299, Hex-[Cys-(tMeBn(N4Ac-Ttds-AET))-Pro-Pro-Thr-Gln-Phe-Cys]-OH]: the IC50 (in assay [1]; at Human recombinant FAP) was below 0.01 µM in each case.

For the compound `CCCCCC(=O)N[C@H]1CSCc2cc(CSCCNC(=O)CCOCCOCCOCCOCCOCCOCCNC(=O)C(CNCCN)CNCCN)cc(c2)CSC[C@@H](C(=O)O)NC(=O)[C@H](Cc2ccccc2)NC(=O)[C@H](CCC(N)=O)NC(=O)[C@H]([C@@H](C)O)NC(=O)[C@@H]2CCCN2C(=O)[C@@H]2CCCN2C1=O` [3BP-4300, Hex-[Cys-(tMeBn(N4Ac-PEG6-AET))-Pro-Pro-Thr-Gln-Phe-Cys]-OH], the values for the IC50 (in assay [1]; on Human recombinant FAP) were 0.01 to 0.0794 µM and below 0.01 µM, respectively.

For the compound `CCCCCC(=O)N[C@H]1CSCc2cc(CSCCNC(=O)[C@H](CO)NC(=O)[C@H](CO)NC(=O)[C@H](CO)NC(=O)CS)cc(c2)CSC[C@@H](C(=O)O)NC(=O)[C@H](Cc2ccccc2)NC(=O)[C@H](CCC(N)=O)NC(=O)[C@H]([C@@H](C)O)NC(=O)[C@@H]2CCCN2C(=O)[C@@H]2CCCN2C1=O` [3BP-4301, Hex-[Cys-(tMeBn(H-SAc-Ser-Ser-Ser-AET))-Pro-Pro-Thr-Gln-Phe-Cys]-OH], the half-inhibitory concentration (IC50) (in assay [1]; on Human recombinant FAP) was 0.01 to 0.0794 µM each time.

Values taken from patent US20220315554A1, “COMPOUNDS COMPRISING A […] LIGAND AND USE THEREOF” (priority 2019, published 2022).
